How the values were obtained:
[1] = tested on: woodchuck hepatitis virus (WHV); assay: T-cell proliferative responses of PBMCs to WHV peptides (CellTiter-Glo, stimulation index); assay type: in vivo; conditions: chronic WHV carrier woodchucks; fold change from baseline at T0
Experimental: In woodchucks, over a 36-week period, AIC649 was administered i.v. and then i.m., alone or in combination with an initial 12 weeks of the direct acting antiviral, ETV, given orally.
(§1) The efficacy of AIC649 monotherapy, ETV monotherapy, or combination AIC649+ETV therapy was compared to a placebo control group (N=5 animals/group). […] Daily observations, changes in body weight and body temperatures, changes in hematology and clinical chemistry, as well as necropsy and histopathology were assessed for determination of safety.
PBMCs were isolated from whole blood and cultured for 5 days in the presence of DMSO (negative control), lipopolysaccharide (LPS, positive control), recombinant human IL-2 (positive control), or pools of peptides covering the entire WHcAg, WHsAg, or WHxAg, respectively. Using the CellTiter-Glo® assay, the number of viable cells in each test well was assessed using a luminescent signal proportional to the amount of ATP present, and thus to the number of viable cells. Cultures were assessed after 5 days and a stimulation index (SI) was derived relative to the negative controls as a measure of T-cell responses to specific antigens/stimuli:
SI=Test luminescence/negative control luminescence

[2] = Safety assessment (mortality, observations, body weight, temperature, hematology, clinical chemistry, necropsy, histopathology); assay type: in vivo, woodchuck; conditions: n=5/group at start of experiment; week of death
Experimental: Treatment-induced changes in viremia, antigenemia, immunological parameters, as well as the induction of WHsAg antibody seroconversion were evaluated for determination of antiviral effects. Daily observations, changes in body weight and body temperatures, changes in hematology and clinical chemistry, as well as necropsy and histopathology were assessed for determination of safety.
as §1, with “safety. […]” for “safety.”
Mortality was assessed daily for all animals.
Body temperature and weight assessments were performed together, weekly. The animal identification number and body temperature were read from a microchip implanted in the dorsal base of the tail using a hand-held chip reader (Biomedical Data Systems Inc.). […]
Uncoagulated whole blood was collected in EDTA tubes. […] Samples were analyzed the following day using an automated cell counter system (coulter) with program settings for woodchucks (Bellezza, C. A., et al., 2002, Elsevier. p. 309-328). […]

C=C1[C@H](CO)[C@@H](O)C[C@@H]1n1cnc2c(=O)[nH]c(N)nc21 [ETV, Entecavir]
cell mediated immune responses (PBMCs stimulated with WHsAg peptides) [1]: not | deaths in group [2]: 1 animal each at week 4, 14, 21, 29

Source: US20200261520A1, “Combination Therapies of Hepatitis B Virus (HBV)-infected individuals using Parapoxvirus Ovis (PPVO) and at Least one Further Antiviral Drug” (priority 2017, published 2020)
